Reference: patent publication US20110039819A1, “SUBSTITUTED PHENOXYBENZAMIDES” (priority 2008, published 2011)
Where two headings read alike, the source gives them in different places.

Target: T1, MEK1 (Homo sapiens, UniProt Q02750)
T1 construct: purchased Millipore 14-420 (GST-MEK1); 14-703 (Cot1); host or cells: Cot1: insect cells (SF21)
Assay: MEK1 activation kinase assay (Assay 2, HTRF; Cot1 phosphorylates GST-MEK1)
Type: biochemical
Description: MEK1 Activation Kinase Assay
The kinase Cot1 activates MEK1 by phosphorylating its activation loop. The inhibitory activity of compounds of the present invention on this activation of MEK1 was quantified employing the HTRF assay described in the following paragraphs.
As substrate for the kinase reaction the unactive C-terminally His6-tagged GST-MEK1 fusion protein (Millipore cat. no 14-420) was used.
Then the kinase reaction was started by the addition of 2 μl of a solution of Cot1 in assay buffer and the resulting mixture was incubated for a reaction time of 20 min at 22° C. The concentration of Cot1 in the assay was adjusted depending of the activity of the enzyme lot and was chosen appropriate to have the assay in the linear range, typical enzyme concentrations were in the range of about 2 ng/μl (final conc. in the 5 μl assay volume).
The resulting mixture was incubated 2 h at 22° C. to allow the binding of the phosphorylated GST-MEK1 to the anti-GST-XL665 and the Eu-cryptate labelled anti-phospho-MEK 1/2 antibody. Subsequently the amount of Ser217/Ser221-phosphorylated substrate was evaluated by measurement of the resonance energy transfer from the Eu-Cryptate-labelled anti-phospho-MEK antibody to the anti-GST-XL665.

[1] = mean values from 2 or more measurements, read-out: Assay 2 IC50 values (nanomolar) (MEK1 activation kinase assay) (values are mean values from 2 or more measurements)
[2] = representative example compounds, read-out: IC50 in MEK1 activation kinase assay

T1 sequence (Q02750 whole entry): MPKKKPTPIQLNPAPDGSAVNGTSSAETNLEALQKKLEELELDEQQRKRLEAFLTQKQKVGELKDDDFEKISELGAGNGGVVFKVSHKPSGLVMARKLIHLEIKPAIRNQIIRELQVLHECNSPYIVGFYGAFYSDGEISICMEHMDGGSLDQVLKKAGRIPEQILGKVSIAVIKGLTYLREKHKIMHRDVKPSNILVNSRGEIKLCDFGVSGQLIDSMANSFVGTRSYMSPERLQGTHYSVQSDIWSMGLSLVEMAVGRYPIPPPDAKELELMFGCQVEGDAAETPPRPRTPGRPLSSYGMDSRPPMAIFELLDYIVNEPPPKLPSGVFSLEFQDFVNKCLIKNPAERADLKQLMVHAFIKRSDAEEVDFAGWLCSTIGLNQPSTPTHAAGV

| IC50 [1] [nM] | IC50 [2] [nM] | SMILES |
| --- | --- | --- |
| 96.4 | – | NC(=O)c1c(Nc2ccc(I)cc2F)cc(F)cc1Oc1cccc(NC(=O)c2cc[nH]n2)c1 [Example 5.81, 1H-Pyrazole-3-carboxylic acid {3-[2-carbamoyl-5-fluoro-3-(2-fluoro-4-iodo-phenylamino)-phenoxy]-phenyl}-amide] |
| 46.7 | – | C#Cc1ccc(Nc2cc(F)cc(Oc3cccc(NS(=O)(=O)NCCC)c3)c2C(N)=O)c(F)c1 [Example 7.3, 2-[3-[[(propylamino)sulfonyl]amino]phenoxy]-4-fluoro-6-[(4-ethynyl-2-fluorophenyl)amino]-benzamide] |
| 137 | – | NC(=O)c1c(Nc2ccc(I)cc2F)cc(F)cc1Oc1cccc(NC(=O)C2CCC2)c1 [Example 5.80, 2-[3-(Cyclo-butanecarbonyl-amino)-phenoxy]-4-fluoro-6-(2-fluoro-4-iodo-phenylamino)-benzamide] |
| 143 | – | Cc1nocc1C(=O)Nc1cccc(Oc2cc(F)cc(Nc3ccc(I)cc3F)c2C(N)=O)c1 [Example 5.83, 3-Methyl-isoxazole-4-carboxylic acid {3-[2-carbamoyl-5-fluoro-3-(2-fluoro-4-iodo-phenylamino)-phenoxy]-phenyl}-amide] |
| 70.3 | – | NC(=O)c1c(Nc2ccc(I)cc2F)cc(F)cc1Oc1cccc(NC(=O)c2csnn2)c1 [Example 5.76, [1,2,3]Thiadiazole-4-carboxylic acid {3-[2-carbamoyl-5-fluoro-3-(2-fluoro-4-iodo-phenylamino)-phenoxy]-phenyl}-amide] |
| 55.5 | – | NC(=O)c1c(Nc2ccc(I)cc2F)cc(F)cc1Oc1cccc(NS(=O)(=O)NCC(F)(F)F)c1 [Example 5.94, 4-fluoro-2-[(2-fluoro-4-iodophenyl)amino]-6-(3-{[(2,2,2-trifluoroethyl)-sulfamoyl]amino}phenoxy)benzamide] |
| 18.3 | – | CC(=O)NCc1cccc(Oc2cc(F)cc(Nc3ccc(I)cc3F)c2C(N)=O)c1 [Example 5.69, 2-[3-(Acetylamino-methyl)-phenoxy]-4-fluoro-6-(2-fluoro-4-iodo-phenylamino)-benzamide] |
| 77.8 | – | NC(=O)c1c(Nc2ccc(I)cc2F)cc(F)cc1Oc1cccc(NC(=O)c2cn[nH]c2)c1 [Example 5.79, 1H-Pyrazole-4-carboxylic acid {3-[2-carbamoyl-5-fluoro-3-(2-fluoro-4-iodo-phenylamino)-phenoxy]-phenyl}-amide] |
| 12.3 | – | C#Cc1ccc(Nc2c(F)c(F)c(F)c(Oc3cccc(NS(=O)(=O)N(C)C)c3)c2C(N)=O)c(F)c1 [Example 7.4, 2-{3-[(dimethylsulfamoyl)amino]phenoxy}-6-[(4-ethynyl-2-fluorophenyl)amino]-3,4,5-trifluorobenzamide] |
| 29.4 | < 1000 | CS(=O)(=O)c1cccc(Oc2cc(F)cc(Nc3ccc(I)cc3F)c2C(N)=O)c1 [Example 10.8, 4-Fluoro-2-(2-fluoro-4-iodo-phenylamino)-6-(3-methanesulfonyl-phenoxy)-benzamide] |
| 25.1 | – | COCCS(=O)(=O)Nc1cccc(Oc2cc(F)cc(Nc3ccc(I)cc3F)c2C(N)=O)c1 [Example 5.95, 4-fluoro-2-[(2-fluoro-4-iodophenyl)amino]-6-(3-{[(2-methoxyethyl)sulfonyl]amino}phenoxy)benzamide] |
| 86 | – | NC(=O)c1c(Nc2ccc(I)cc2F)cc(F)cc1Oc1cncc(NS(=O)(=O)c2c[nH]cn2)c1 [Example 5.93, 4-Fluoro-2-(2-fluoro-4-iodo-phenylamino)-6-[5-(1H-imidazole-4-sulfonylamino)-pyridin-3-yloxy]-benzamide] |
| 33.2 | < 1000 | NC(=O)c1c(Nc2ccc(I)cc2F)cc(F)cc1Oc1cccc(C(=O)O)c1 [Example 10.7, 3-[2-Carbamoyl-5-fluoro-3-(2-fluoro-4-iodo-phenylamino)-phenoxy]-benzoic acid] |

The remaining lines, values behind:

| SMILES | IC50 [1] [nM] | IC50 [2] [nM] |
| --- | --- | --- |
| CN(C)S(=O)(=O)Nc1cccc(Oc2c(F)c(F)c(F)c(Nc3ccc(I)cc3F)c2C(N)=O)c1 [Example 2.20, 2-{3-[(dimethylsulfamoyl)amino]phenoxy}-3,4,5-trifluoro-6-[(2-fluoro-4-iodophenyl)amino]-benzamide] | 16.5 | < 1000 |
| CCS(=O)(=O)N1CCC[C@H]1COc1cc(F)cc(Nc2ccc(I)cc2F)c1C(N)=O [Example 5.34, 2-((S)-1-Ethanesulfonyl-pyrrolidin-2-ylmethoxy)-4-fluoro-6-(2-fluoro-4-iodo-phenylamino)-benzamide] | 96.5 | – |
| CCCNS(=O)(=O)Nc1cccc(Oc2cc(F)cc(Nc3ccc(I)cc3F)c2C(N)=O)c1 [Example 5.2, 2-[3-[[(propylamino)sulfonyl]amino]phenoxy]-4-fluoro-6-[(2-fluoro-4-iodophenyl)amino]-benzamide] | 24 | – |
| CN(C)S(=O)(=O)Nc1cccc(Oc2cc(F)cc(Nc3ccc(I)cc3)c2C(N)=O)c1 [Example 2.16, 2-{3-[(dimethylsulfamoyl)amino]phenoxy}-4-fluoro-6-[(4-iodophenyl)amino] benzamide] | 47.3 | < 1000 |
| C[C@@H](O)CNC(=O)c1c(Nc2ccc(I)cc2F)cc(F)cc1Oc1cccc(NS(=O)(=O)N(C)C)c1 [Example 4.22, 2-[3-[[(dimethylamino)sulfonyl]amino]phenoxy]--4-fluoro-6-[(2-fluoro-4-iodophenyl)amino]-N-((R)-2-hydroxy-propyl)-benzamide] | 163 | – |
| CCN(CC)S(=O)(=O)Nc1cccc(Oc2cc(F)cc(Nc3ccc(I)cc3F)c2C(N)=O)c1 [Example 5.38, 2-(3-diethylsulfamoyl-amino-phenoxy)-4-fluoro-6-(2-fluoro-4-iodo-phenylamino)-benzamide] | 55.3 | – |
| C[C@H](CO)NC(=O)c1c(Nc2ccc(I)cc2F)cc(F)cc1Oc1cccc(NS(=O)(=O)N(C)C)c1 [Example 4.20, 2-[3-[[(dimethylamino)sulfonyl]amino]phenoxy]--4-fluoro-6-[(2-fluoro-4-iodophenyl)amino]-N-((R)-2-hydroxy-1-methyl-ethyl)-benzamide] | 89.3 | – |
| CS(=O)(=O)N1CCC[C@@H]1COc1cc(F)cc(Nc2ccc(I)cc2F)c1C(N)=O [Example 5.32, 4-Fluoro-2-(2-fluoro-4-iodo-phenylamino)-6-((R)-1-methanesulfonyl-pyrrolidin-2-ylmethoxy)-benzamide] | 35.4 | – |
| Cc1cc(I)ccc1Nc1cc(F)cc(Oc2cccc(NS(=O)(=O)N(C)C)c2)c1C(N)=O [Example 2.17, 2-{3-[(dimethylsulfamoyl)amino]phenoxy}-4-fluoro-6-[(4-iodo-2-methylphenyl)amino] benzamide] | 39.8 | < 1000 |
| CN(C)S(=O)(=O)NCc1cccc(Oc2cc(F)cc(Nc3ccc(I)cc3F)c2C(N)=O)c1 [Example 5.67, 6-[3-(dimethyl-aminosulfonylamino-methyl)-phenoxy]-4-fluoro-2-(2-fluoro-4-iodo-phenylamino)-6-benzamide] | 63.4 | – |
| CCS(=O)(=O)N1CCC[C@@H]1COc1cc(F)cc(Nc2ccc(I)cc2F)c1C(N)=O [Example 5.33, 2-((R)-1-Ethanesulfonyl-pyrrolidin-2-ylmethoxy)-4-fluoro-6-(2-fluoro-4-iodo-phenylamino)-benzamide] | 91.6 | – |
| CC(O)(CO)CCOc1cc(F)cc(Nc2ccc(I)cc2F)c1C(N)=O (single isomer, unassigned) [Example 6.6, 2-(3,4-Dihydroxy-3-methyl-butoxy)-4-fluoro-6-(2-fluoro-4-iodo-phenylamino)-benzamide] | 80.3 | – |
| NC(=O)c1c(Nc2ccc(I)cc2F)cc(F)cc1Oc1cccc(NS(=O)(=O)C2CC2)c1 [Example 5.36, 2-(3- Cyclopropanesulfonylamino-phenoxy)-4-fluoro-6-(2-fluoro-4-iodo-phenylamino)-benzamide] | 14.5 | – |
| C[C@@H](CO)NC(=O)c1c(Nc2ccc(I)cc2F)cc(F)cc1Oc1cccc(NS(=O)(=O)N(C)C)c1 [Example 4.21, 2-[3-[[(dimethylamino)sulfonyl]amino]phenoxy]--4-fluoro-6-[(2-fluoro-4-iodophenyl)amino]-N-((S)-2-hydroxy-1-methyl-ethyl)-benzamide] | 248 | – |
| NC(=O)c1c(Nc2ccc(I)cc2F)cc(F)cc1Oc1cccc(NS(=O)(=O)C2CCCC2)c1 [Example 5.37, 2-(3- Cyclopentanesulfonylamino-phenoxy)-4-fluoro-6-(2-fluoro-4-iodo-phenylamino)-benzamide] | 20.4 | – |
| NC(=O)c1c(Nc2ccc(I)cc2F)cc(F)cc1Oc1cccc(NS(=O)(=O)C2CCC2)c1 [Example 5.48, 2-(3-Cyclobutanesulfonyl-amino-phenoxy)-4-fluoro-6-(2-fluoro-4-iodo-phenylamino)-benzamide] | 16.9 | < 1000 |
| NC(=O)c1c(Nc2ccc(I)cc2F)cc(F)cc1Oc1cccc(NS(=O)(=O)N2CCOCC2)c1 [Example 5.24, 4-Fluoro-2-(2-fluoro-4-iodo-phenylamino)-6-[3-(morpholine-4-sulfonylamino)-phenoxy]-benzamide] | 25.9 | < 1000 |
| CS(=O)(=O)NCc1cccc(Oc2cc(F)cc(Nc3ccc(I)cc3F)c2C(N)=O)c1 [Example 5.68, 4-Fluoro-2-(2-fluoro-4-iodo-phenylamino)-6-[3-(methane-sulfonylamino-methyl)-phenoxy]-benzamide] | 43.2 | – |
